Data reported in ChEMBL document CHEMBL1130574, “5-HT1A and 5-HT2A ligands with anxiolytic and antipanic-like properties” (Bioorg Med Chem Lett, 1997).
Active and inactive are the calls of the source. The calls are words filed in the database; no cut-off is given here.

How the values were obtained:
[1] = target: T1, Adrenergic receptor alpha-1 (Rattus norvegicus, UniProt P15823+P23944+P43140); experiment: Binding affinity against Alpha-1 adrenergic receptor in rat cortex using [3H]prazosin; assay type: tissue-based, Brain
T1 sequence (P15823 whole entry): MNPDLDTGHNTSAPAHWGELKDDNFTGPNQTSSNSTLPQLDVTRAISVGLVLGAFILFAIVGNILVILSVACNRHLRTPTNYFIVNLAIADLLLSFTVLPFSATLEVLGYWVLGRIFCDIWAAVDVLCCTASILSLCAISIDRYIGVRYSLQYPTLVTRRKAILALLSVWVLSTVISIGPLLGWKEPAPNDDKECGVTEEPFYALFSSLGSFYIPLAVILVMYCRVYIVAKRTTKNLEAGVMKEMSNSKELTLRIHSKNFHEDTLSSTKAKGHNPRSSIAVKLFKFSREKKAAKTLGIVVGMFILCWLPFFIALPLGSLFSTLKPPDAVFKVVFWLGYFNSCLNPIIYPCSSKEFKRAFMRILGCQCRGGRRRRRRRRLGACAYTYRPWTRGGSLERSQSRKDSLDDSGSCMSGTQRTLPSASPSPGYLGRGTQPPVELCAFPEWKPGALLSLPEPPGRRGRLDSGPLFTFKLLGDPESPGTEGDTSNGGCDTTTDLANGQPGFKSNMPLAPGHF
T1 sequence (P23944 whole entry): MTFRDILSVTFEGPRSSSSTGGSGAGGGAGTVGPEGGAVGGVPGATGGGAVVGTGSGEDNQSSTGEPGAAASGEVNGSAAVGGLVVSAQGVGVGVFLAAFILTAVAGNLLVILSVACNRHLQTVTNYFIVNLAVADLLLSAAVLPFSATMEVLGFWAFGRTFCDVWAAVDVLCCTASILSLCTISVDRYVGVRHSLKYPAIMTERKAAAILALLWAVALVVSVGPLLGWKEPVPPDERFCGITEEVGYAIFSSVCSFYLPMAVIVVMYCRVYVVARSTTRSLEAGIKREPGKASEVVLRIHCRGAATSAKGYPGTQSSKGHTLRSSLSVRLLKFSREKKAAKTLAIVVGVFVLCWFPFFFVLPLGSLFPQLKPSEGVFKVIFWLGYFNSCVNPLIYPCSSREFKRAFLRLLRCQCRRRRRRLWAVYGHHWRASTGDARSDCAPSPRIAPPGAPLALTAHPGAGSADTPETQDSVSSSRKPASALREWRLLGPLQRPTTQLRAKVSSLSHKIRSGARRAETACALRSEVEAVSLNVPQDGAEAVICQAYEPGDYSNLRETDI
T1 sequence (P43140 whole entry): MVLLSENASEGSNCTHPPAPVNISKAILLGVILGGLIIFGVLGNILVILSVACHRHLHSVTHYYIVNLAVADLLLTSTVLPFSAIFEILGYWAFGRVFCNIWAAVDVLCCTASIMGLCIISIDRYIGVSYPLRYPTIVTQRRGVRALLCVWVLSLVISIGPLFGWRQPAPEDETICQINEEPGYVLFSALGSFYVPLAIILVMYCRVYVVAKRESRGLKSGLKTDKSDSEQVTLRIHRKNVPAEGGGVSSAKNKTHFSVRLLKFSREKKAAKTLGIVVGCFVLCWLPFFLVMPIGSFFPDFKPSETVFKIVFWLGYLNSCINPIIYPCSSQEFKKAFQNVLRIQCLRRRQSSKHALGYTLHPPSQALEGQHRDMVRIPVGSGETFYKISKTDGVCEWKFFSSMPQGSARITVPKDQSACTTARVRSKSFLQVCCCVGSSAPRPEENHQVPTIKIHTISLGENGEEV

[2] = target: D(2) dopamine receptor (Rattus norvegicus, UniProt P61169); experiment: Binding affinity against D2 receptor in rat striatum using [3H]raclopride; assay type: tissue-based
D(2) dopamine receptor, sequence (P61169 whole entry): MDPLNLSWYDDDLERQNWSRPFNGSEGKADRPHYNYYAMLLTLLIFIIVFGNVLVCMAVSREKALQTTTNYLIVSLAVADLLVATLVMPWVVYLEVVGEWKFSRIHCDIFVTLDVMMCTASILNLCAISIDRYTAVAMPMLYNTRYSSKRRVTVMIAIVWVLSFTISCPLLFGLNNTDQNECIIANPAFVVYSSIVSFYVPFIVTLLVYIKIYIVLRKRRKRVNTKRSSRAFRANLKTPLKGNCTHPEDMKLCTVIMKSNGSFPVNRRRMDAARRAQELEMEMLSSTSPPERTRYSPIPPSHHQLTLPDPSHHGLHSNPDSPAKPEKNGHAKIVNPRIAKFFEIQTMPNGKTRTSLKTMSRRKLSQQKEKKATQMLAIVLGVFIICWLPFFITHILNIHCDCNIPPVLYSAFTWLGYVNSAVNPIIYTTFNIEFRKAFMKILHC

[3] = target: 5-hydroxytryptamine receptor 2A (Rattus norvegicus, UniProt P14842); experiment: Binding affinity for 5-hydroxytryptamine 2A receptor in rat cortex using [3H]ketanserin; assay type: tissue-based
5-hydroxytryptamine receptor 2A, sequence (P14842 whole entry): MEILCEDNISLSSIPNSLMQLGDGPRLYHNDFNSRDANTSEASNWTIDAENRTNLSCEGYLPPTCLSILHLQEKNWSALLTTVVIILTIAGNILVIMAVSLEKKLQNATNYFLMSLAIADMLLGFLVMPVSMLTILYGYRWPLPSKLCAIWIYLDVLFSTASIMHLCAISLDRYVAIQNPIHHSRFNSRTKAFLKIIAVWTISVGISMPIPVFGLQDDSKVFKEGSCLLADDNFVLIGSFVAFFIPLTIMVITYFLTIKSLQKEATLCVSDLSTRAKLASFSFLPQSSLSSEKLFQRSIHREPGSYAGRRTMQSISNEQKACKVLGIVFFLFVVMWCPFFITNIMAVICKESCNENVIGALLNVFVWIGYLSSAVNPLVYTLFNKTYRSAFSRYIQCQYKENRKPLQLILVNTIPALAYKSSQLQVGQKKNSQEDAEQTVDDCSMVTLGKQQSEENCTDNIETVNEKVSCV

[4] = target: T2, 5-hydroxytryptamine receptor 1A (Rattus norvegicus, UniProt P19327); experiment: Binding affinity against 5-hydroxytryptamine 1A receptor of rat hippocampus using [3H]8-OH-DPAT; assay type: tissue-based
T2 sequence (P19327 whole entry): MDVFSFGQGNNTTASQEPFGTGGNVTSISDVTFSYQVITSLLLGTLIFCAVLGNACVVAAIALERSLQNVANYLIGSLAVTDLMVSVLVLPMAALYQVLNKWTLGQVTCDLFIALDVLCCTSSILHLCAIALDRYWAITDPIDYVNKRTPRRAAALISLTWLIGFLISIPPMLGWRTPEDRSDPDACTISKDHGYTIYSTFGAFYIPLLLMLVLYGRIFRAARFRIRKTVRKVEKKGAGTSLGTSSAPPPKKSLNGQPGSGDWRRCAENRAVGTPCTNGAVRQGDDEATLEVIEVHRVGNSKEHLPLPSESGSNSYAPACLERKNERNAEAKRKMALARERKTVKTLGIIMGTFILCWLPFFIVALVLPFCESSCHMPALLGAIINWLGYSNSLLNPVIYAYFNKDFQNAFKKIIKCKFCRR

[5] = target: T3, 5-hydroxytryptamine receptor 2C (Rattus norvegicus, UniProt P08909); experiment: Binding affinity against 5-hydroxytryptamine 2C receptor in rat choroid plexus using [3H]N-methyl-mesulergine
T3 sequence (P08909 whole entry): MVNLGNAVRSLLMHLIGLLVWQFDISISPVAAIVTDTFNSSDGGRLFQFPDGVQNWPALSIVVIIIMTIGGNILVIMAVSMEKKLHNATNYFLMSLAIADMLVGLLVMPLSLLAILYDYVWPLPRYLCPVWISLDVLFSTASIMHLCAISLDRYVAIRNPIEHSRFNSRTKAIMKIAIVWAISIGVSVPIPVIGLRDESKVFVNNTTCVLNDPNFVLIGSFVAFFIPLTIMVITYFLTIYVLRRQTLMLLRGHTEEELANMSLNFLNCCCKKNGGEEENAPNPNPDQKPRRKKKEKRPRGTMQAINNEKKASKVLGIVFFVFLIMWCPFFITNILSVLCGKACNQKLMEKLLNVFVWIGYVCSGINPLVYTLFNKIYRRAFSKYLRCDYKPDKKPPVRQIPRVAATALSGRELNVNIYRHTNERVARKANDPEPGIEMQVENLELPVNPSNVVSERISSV

[6] = test system: Mus musculus; experiment: 5-HT2 antagonist activity was assessed by the ability of compound to antagonise 5-HTP induced head twitches at 4 mg/Kg administered intraperitoneally in mice; Inactive; assay type: functional, organism-based
[7] = test system: Mus musculus; experiment: Compound was tested for sedative activity in mice at the dose of 4 mg/kg perorally; active; assay type: functional, organism-based; set-up: dose 4 mg/kg
[8] = test system: Mus musculus; experiment: 5-HT2 antagonist activity was assessed by the ability of compound to antagonise mescaline induced scratching at 16 mg/Kg administered intraperitoneally in mice; Inactive; assay type: functional, organism-based
[9] = test system: Mus musculus; experiment: 5-HT2 antagonist activity was assessed by the ability of compound to antagonise 5-HTP induced head twitches at 45 mg/Kg administered perorally in mice; assay type: functional; conditions: po
[10] = test system: Mus musculus; experiment: 5-HT2 antagonist activity was assessed by the ability of compound to antagonise 5-HTP induced head twitches at 128 mg/Kg administered perorally in mice; assay type: functional; conditions: po
[11] = test system: Mus musculus; experiment: 5-HT2 antagonist activity was assessed by the ability of compound to antagonise mescaline induced scratching at 8 mg/Kg administered perorally in mice; assay type: functional; conditions: po
[12] = test system: Mus musculus; experiment: 5-HT2 antagonist activity was assessed by the ability of compound to antagonise mescaline induced scratching at 32 mg/Kg administered perorally in mice; assay type: functional; conditions: po

Structure (SMILES) | Ki [1] [nM] | Ki [2] [nM] | Ki [3] [nM] | Ki [4] [nM] | Ki [5] [nM] | Activity [6] | Activity [7] | Activity [8] | inhibition in vivo at 45 mg/kg [9] [%] | inhibition in vivo at 128 mg/kg [10] [%] | inhibition in vivo at 8 mg/kg [11] [%] | inhibition in vivo at 32 mg/kg [12] [%]
O=C(c1ccc(F)cc1)C1CCN(CCn2c(=O)sc3cc(CCCCN4CCN(c5cccc(C(F)(F)F)c5)CC4)ccc32)CC1 | 1000 | 30 | 50 | 70 | > 10000 | – | – | – | – | – | – | –
COc1ccccc1N1CCN(CCc2ccc3c(c2)sc(=O)n3CCN2CCC(C(=O)c3ccc(F)cc3)CC2)CC1 | 1 | 5 | 20 | 6000 | 50 | – | – | – | – | – | – | –
COc1ccccc1N1CCN(CCCCc2ccc3c(c2)OCC(=O)N3CCN2CCC(C(=O)c3ccc(F)cc3)CC2)CC1 | 2 | 0.06 | 14 | 18 | 30 | – | – | – | – | – | – | –
COc1ccccc1N1CCN(CCCCc2ccc3c(c2)OCC(=O)N3CCN2CCC(=C(c3ccc(F)cc3)c3ccc(F)cc3)CC2)CC1 | 13 | 1.4 | 120 | 49 | 250 | – | – | – | – | – | – | –
COc1ccccc1N1CCN(CCCCc2ccc3c(c2)oc(=O)n3CCN2CCC(C(=O)c3ccc(F)cc3)CC2)CC1 | – | 0.5 | 16 | 2 | 75 | – | – | – | – | – | – | –
COc1ccccc1N1CCN(CCCc2ccc3c(c2)sc(=O)n3CCN2CCC(C(=O)c3ccc(F)cc3)CC2)CC1 | – | 2 | 2 | 3 | 70 | – | – | – | – | – | – | –
O=C(c1ccc(F)cc1)C1CCN(CCn2c(=O)sc3cc(CCCCN4CCOCC4)ccc32)CC1 | 40 | 100 | 0.6 | 700 | 20 | inactive | Active | inactive | – | – | – | –
COc1ccccc1N1CCN(CCCCc2ccc3c(c2)oc(=O)n3CCN2CCC(=C(c3ccc(F)cc3)c3ccc(F)cc3)CC2)CC1 | 5 | 3 | 335 | 98 | 460 | – | – | – | – | – | – | –
COc1ccccc1N1CCN(CCCCc2ccc3c(c2)sc(=O)n3CCN2CCC(=C(c3ccc(F)cc3)c3ccc(F)cc3)CC2)CC1 | 5 | 5 | 7 | 5 | 110 | – | – | – | – | – | – | –
COc1ccccc1N1CCN(CCCCc2ccc3c(c2)sc(=O)n3CCN2CCC(C(=O)c3ccc(F)cc3)CC2)CC1 | 5 | 1.2 | 2 | 7 | 240 | – | – | – | 50 | 90 | 86 | 70
